Data on three compounds can be found in PubChem BioAssay (NCI).

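Each compound was tested at five concentrations against cells in 96-well plates for 48 hours. TGI: concentration producing complete growth inhibition.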

Test systems include DLD-1 colon; DMS 114 small cell lung; DMS 273 small cell lung; KM20L2 colon; LXFL 529 NSCLC; MDA-N; RXF-631 renal; SNB-78 CNS; XF 498 CNS.
What all share (experiment): DTP human tumour cell line panel, 48 h

A word on the TGI: it is the concentration giving total growth inhibition. Lower therefore signals greater sensitivity of the cells. Turning to `CCC(C)SC1SCC2C(=O)N(C)C3(CC3C)C(=O)OCC(NC(=O)c3nc4ccccc4cc3O)C(=O)NC(C)C(=O)N(C)C1C(=O)N(C)C1(CC1C)C(=O)OCC(NC(=O)c1nc3ccccc3cc1O)C(=O)NC(C)C(=O)N2C` (configuration not stated), the TGI with DLD-1 colon was 0.0732 µM; in the test with DMS 114 small cell lung, 0.000279 µM; in the test with DMS 273 small cell lung it was 0.000123 µM; in the test with KM20L2 colon, 0.000446 µM; with LXFL 529 NSCLC, 0.791 µM; in the test on MDA-N it was 0.000162 µM. For the same compound, the TGI came to 1.22 µM with RXF-631 renal, 0.255 µM in the test on SNB-78 CNS and 0.000434 µM with XF 498 CNS.

On to `O=C1c2ccccc2C(=O)c2c(/C=C\N3CCCCC3)ccnc21`, for which the TGI in the test on DLD-1 colon was 15.8 µM; with DMS 114 small cell lung, 4.2 µM; in the test with DMS 273 small cell lung it was 10.4 µM; in the test on KM20L2 colon, 32.6 µM; with LXFL 529 NSCLC, 15 µM; with MDA-N, 0.352 µM. Besides, the TGI is greater than 45.8 µM in the test with RXF-631 renal, 61.8 µM with SNB-78 CNS and 27.2 µM in the test on XF 498 CNS.

For the compound `O=C1C(Br)=C(Br)C(=O)c2ccc(=O)ccc21`, the TGI with DLD-1 colon is 46.6 µM; in the test on DMS 114 small cell lung, 39.2 µM; with DMS 273 small cell lung it was greater than 100 µM; in the test with KM20L2 colon it was greater than 100 µM; in the test on LXFL 529 NSCLC it was 31.7 µM; with MDA-N it was 44.8 µM. Further, the TGI in the test on RXF-631 renal was 39.7 µM; with SNB-78 CNS, greater than 100 µM; in the test on XF 498 CNS, 43.2 µM.
